“And” between values parts separate entries of the source, which are not always exact repeats. Identical values can stand only once.
What was measured:
S. aureus ATCC 6538 = test: Test 2 (DGHM), growth inhibition by dilutions, 72 hours at 37° C.; assay type: cell-based, Staphylococcus aureus
Procedure: (§1) Another test was carried out a basis of the following solutions • 100 ml of a 0.1% solution of chlorohexidine digluconate (pH 6); and • 100 ml of a 0.1% solution of Bardac22®.
(§2) The activity of these solutions, alone or in combination, was more particularly tested in respect of Staphylococcus aureus ATCC 6538, Escherichia coli ATCC 11229 and Candida albicans ATCC 10231.
(§3) The tests were conducted in accordance with the procedure described in Chapter I/2.1 and 2.2 of Tichtlinien für die Prüfung und Bewertung chemischer Desinfektionsverfahren der DGHM/Guidelines for Testing and Evaluating Chemical Disinfection Processes of DGHM as at 1.1, 1981.
(§4) Tables IX, X and XI respectively illustrate the bactericidal and fungicidal activity of a 0.1% aqueous solution of chlorohexidine digluconate, a 0.1% aqueous solution of Bardac22® and a mixture of equal parts of both compounds. The procedures of which these Tables illustrate the results comprise incubation of 72 hours at 37° C. and the use of the following inactivating substances as controls: • A: 3% Tween®80+0.3% lecithin+0.1% cysteine • B: 3% Tween®80+3% saponin+0.1% cysteine+0.1% histidine; • C: 3% Tween®80+0.3% lecithin+0.1% histidine+0.5% sodium thiosulphate.
(§5) In these Tables, the sign “+” indicates an increase and the sign “−” denotes the absence of growth.

E. coli ATCC 11229 = test: as above; assay type: cell-based, Escherichia coli
Procedure: as §1, §2, §3, §4, §5

[1] = test system: erythrocytes in heparinized bovine blood; test: In-vitro hemolysis of erythrocytes in heparinized whole blood, absorbance at 413 nm; conditions: 1 hour at 37° C.
Procedure: The effect of the compounds on the in-vitro hemolysis of erythrocytes in heparinized whole blood is monitored by a spectrophotometric method.
Various formulations and concentrations of the test compound are added to heparinized bovine blood and mixed gently in a 1.5 ml microcentrifuge tube. The sample is allowed to incubate for 1 hour at 37° C. At the end of incubation, the samples are removed from the incubator and centrifuged at 2000 rpm for 5 minutes. A 200 μl aliquot of the supernatant is removed from each sample into a 96 well microtiter plate and read at 413 nm. The absorbance of the test sample is compared to the control sample containing phosphate buffered saline, pH 7.2.

[2] = test system: herpes virus Hominis type 1, strain Bey (HSV1); test: Immediate virocidal action, zone-forming units on vero cells; assay type: cell-based; conditions: day 4, three culture dishes
spermatozoids = test: Spermicidal action, vitality by eosine-nigrosine, 100 spermatozoids examined; assay type: cell-based, human (healthy volunteers)
Procedure: The various samples of sperm (one drop of sperm per sample) are obtained from healthy volunteers.
One drop of sperm is treated by eosine-nigrosine. A smear is then prepared and 100 spermatozoids examined with a microscope. The dead cells are coloured red, either totally or partially. The living cells are colourless.
The substances studied were Bardac® and chlorohexidine digluconate, tested alone and in association in accordance with the invention. The various stages of the procedure are set out in Tables XV to XVII.
The maximum contact time of the various substances and of the sperm was confined to 3 minutes in order to guarantee the effectiveness of the method under the conditions of use. The concentration of the active solutions in the sperm was limited to 10% in order to reduce the risks of toxicity of the products in respect of the mucosa.

AgHBs = test: In vitro degradation of the antigen of hepatitis B virus (AgHBs), virocide + human serum of a hepatitis B patient; assay type: biochemical; conditions: Bardac 0.2%
From the text: Action on In Vitro Degradation of the Antigen of Hepatitis B Virus (AgHBs) of the Hepatitis B Virus: Virocide+Human Serum Taken from a Patient with Hepatitis B ( 1/1000th)

[3] = 0.00625% vol/vol, inactivator A
[4] = 0.00625% vol/vol, inactivator B
[5] = 0.00625% vol/vol, inactivator C
[6] = 0.00625% vol/vol, no inactivator
[7] = 0.0125% vol/vol, no inactivator

CCCCCCCCCC[N+](C)(C)CCCCCCCCCC.[Cl-] [Bardac ®, didecyl dimethyl ammonium chloride]
9.2 ± 12.9: vitality (living spermatozoids) (spermatozoids; Bardac solution 0.6%, contact 1 min, 10% in the sperm)
2.2 ± 4.5: vitality (living spermatozoids) (spermatozoids; Bardac solution 0.6%, contact 3 min, 5% in the sperm)
0.5%: dilution of the 0.1% solution inhibiting growth (E. coli ATCC 11229)
1.8 ± 2.5: vitality (living spermatozoids) (spermatozoids; Bardac solution 0.8%, contact 1 min, 10% in the sperm)
5 ± 6.4: vitality (living spermatozoids) (spermatozoids; Bardac solution 0.4%, contact 1 min, 10% in the sperm)
0.4 ± 0.9: vitality (living spermatozoids) (spermatozoids; Bardac solution 0.6%, contact 3 min, 10% in the sperm)
0.0005%: concentration of active substance inhibiting growth (E. coli ATCC 11229)
0.8 ± 1: vitality (living spermatozoids) (spermatozoids; Bardac solution 0.4%, contact 3 min, 10% in the sperm)
1.35: Residual AgHBs (ratio) (AgHBs)
30/125/45: Number of zone-forming units per milliliter of virus diluted to 10^−4 ([2]; Bardac 0.02%)
−: growth (S. aureus ATCC 6538; 0.1% vol/vol, no inactivator) | growth (S. aureus ATCC 6538; 0.5% vol/vol, no inactivator) | growth (S. aureus ATCC 6538; 1.0% vol/vol, no inactivator) | growth (E. coli ATCC 11229; 0.5% vol/vol, no inactivator) | growth (E. coli ATCC 11229; 1.0% vol/vol, no inactivator)
0.8 ± 1.2: vitality (living spermatozoids) (spermatozoids; Bardac solution 0.4%, contact 3 min, 5% in the sperm)
9.7 ± 10.2: vitality (living spermatozoids) (spermatozoids; Bardac solution 0.8%, contact 1 min, 5% in the sperm)
0.0001%: concentration of active substance inhibiting growth (S. aureus ATCC 6538)
10.7 ± 7.6: vitality (living spermatozoids) (spermatozoids; Bardac solution 0.4%, contact 1 min, 5% in the sperm)
26/17/20: Number of zone-forming units per milliliter of virus diluted to 10^−4 ([2]; Bardac, concentration not given, second series (control virus at 10^−6))
0.1%: dilution of the 0.1% solution inhibiting growth (S. aureus ATCC 6538)
+: growth (S. aureus ATCC 6538; [3]) | growth (S. aureus ATCC 6538; [4]) | growth (S. aureus ATCC 6538; [5]) | growth (S. aureus ATCC 6538; [6]) | growth (S. aureus ATCC 6538; 0.0125% vol/vol, inactivator A) | growth (S. aureus ATCC 6538; 0.0125% vol/vol, inactivator B) | growth (S. aureus ATCC 6538; 0.0125% vol/vol, inactivator C) | growth (S. aureus ATCC 6538; [7]) | growth (S. aureus ATCC 6538; 0.025% vol/vol, inactivator A) | growth (S. aureus ATCC 6538; 0.025% vol/vol, inactivator B) | growth (S. aureus ATCC 6538; 0.025% vol/vol, inactivator C) | growth (S. aureus ATCC 6538; 0.025% vol/vol, no inactivator) | growth (S. aureus ATCC 6538; 0.05% vol/vol, inactivator A) | growth (S. aureus ATCC 6538; 0.05% vol/vol, inactivator B) | growth (S. aureus ATCC 6538; 0.05% vol/vol, inactivator C) | growth (S. aureus ATCC 6538; 0.05% vol/vol, no inactivator) | growth (S. aureus ATCC 6538; 0.1% vol/vol, inactivator A) | growth (S. aureus ATCC 6538; 0.1% vol/vol, inactivator B) | growth (S. aureus ATCC 6538; 0.1% vol/vol, inactivator C) | growth (S. aureus ATCC 6538; 0.5% vol/vol, inactivator A) | growth (S. aureus ATCC 6538; 0.5% vol/vol, inactivator B) | growth (S. aureus ATCC 6538; 0.5% vol/vol, inactivator C) | growth (S. aureus ATCC 6538; 1.0% vol/vol, inactivator A) | growth (S. aureus ATCC 6538; 1.0% vol/vol, inactivator B) | growth (S. aureus ATCC 6538; 1.0% vol/vol, inactivator C) | growth (E. coli ATCC 11229; [3]) | growth (E. coli ATCC 11229; [4]) | growth (E. coli ATCC 11229; [5]) | growth (E. coli ATCC 11229; [6]) | growth (E. coli ATCC 11229; 0.0125% vol/vol, inactivator A) | growth (E. coli ATCC 11229; 0.0125% vol/vol, inactivator B) | growth (E. coli ATCC 11229; 0.0125% vol/vol, inactivator C) | growth (E. coli ATCC 11229; [7]) | growth (E. coli ATCC 11229; 0.025% vol/vol, inactivator A) | growth (E. coli ATCC 11229; 0.025% vol/vol, inactivator B) | growth (E. coli ATCC 11229; 0.025% vol/vol, inactivator C) | growth (E. coli ATCC 11229; 0.025% vol/vol, no inactivator) | growth (E. coli ATCC 11229; 0.05% vol/vol, inactivator A) | growth (E. coli ATCC 11229; 0.05% vol/vol, inactivator B) | growth (E. coli ATCC 11229; 0.05% vol/vol, inactivator C) | growth (E. coli ATCC 11229; 0.05% vol/vol, no inactivator) | growth (E. coli ATCC 11229; 0.1% vol/vol, inactivator A) | growth (E. coli ATCC 11229; 0.1% vol/vol, inactivator B) | growth (E. coli ATCC 11229; 0.1% vol/vol, inactivator C) | growth (E. coli ATCC 11229; 0.1% vol/vol, no inactivator) | growth (E. coli ATCC 11229; 0.5% vol/vol, inactivator A) | growth (E. coli ATCC 11229; 0.5% vol/vol, inactivator B) | growth (E. coli ATCC 11229; 0.5% vol/vol, inactivator C) | growth (E. coli ATCC 11229; 1.0% vol/vol, inactivator A) | growth (E. coli ATCC 11229; 1.0% vol/vol, inactivator B) | growth (E. coli ATCC 11229; 1.0% vol/vol, inactivator C)
10.5 ± 9.7: vitality (living spermatozoids) (spermatozoids; Bardac solution 0.6%, contact 1 min, 5% in the sperm)
0: vitality (living spermatozoids) (spermatozoids; Bardac solution 0.8%, contact 3 min, 5% in the sperm) | vitality (living spermatozoids) (spermatozoids; Bardac solution 0.8%, contact 3 min, 10% in the sperm) | vitality (living spermatozoids) (spermatozoids; Bardac solution 1%, contact 1 min, 5% in the sperm) | vitality (living spermatozoids) (spermatozoids; Bardac solution 1%, contact 1 min, 10% in the sperm) | vitality (living spermatozoids) (spermatozoids; Bardac solution 1%, contact 3 min, 5% in the sperm) | vitality (living spermatozoids) (spermatozoids; Bardac solution 1%, contact 3 min, 10% in the sperm)
0.001% and 0.0125% and 0.0005%: Concentration at which hemolysis is not observed [1]

Reference: US7381521B2, “Anti-pathogenic composition useful in blood preservation” (Altachem Pharma Ltd., priority 2001, dated 2008)
